Consider 21 compounds from PubChem BioAssay AID248 (DTP/NCI, 2004).

Molecules are shown by their SMILES. Values joined by “and” are separate entries in the source; they are usually repeats but may differ in a detail not shown here. Identical values can stand only once. Inconclusive results and toxic doses are left out.

The test has as its system L1210 leukemia ip in BDF1 mice, survival T/C. As to the kind of experiment: NCI In Vivo Anticancer Drug Screen. Data for tumor model L1210 Leukemia (intraperitoneal) in B6D2F1 (BDF1) mice. The following applies: endpoint: mean survival time, higher = longer survival. An outline of the steps:
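Tumor cells were implanted, animals were treated, and survival was followed. The result divides the treated measurement by the vehicle-control measurement.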

Where [1] appears, read: dose: 6.25 mg/kg/injection, schedule: Q01DX009 (ip), vehicle: saline.
Setting [2] is: dose: 12.5 mg/kg/injection, schedule: Q01DX009 (ip), vehicle: saline.
The mark [3] stands for this setting: dose: 25.0 mg/kg/injection, schedule: Q01DX009 (ip), vehicle: saline.
[4] abbreviates: dose: 100.0 mg/kg/injection, schedule: Q01DX001 (ip), vehicle: carboxymethylcellulose (CMC).
Setting [5] is: dose: 100.0 mg/kg/injection, schedule: Q04DX003 (ip), vehicle: Klucel (hydroxypropylcellulose) (HPC).
Where [6] appears, read: dose: 200.0 mg/kg/injection, schedule: Q04DX003 (ip), vehicle: Klucel (hydroxypropylcellulose) (HPC).
Where [7] appears, read: dose: 100.0 mg/kg/injection, schedule: Q01DX001 (ip), vehicle: saline with Tween-80.
Where [8] appears, read: dose: 200.0 mg/kg/injection, schedule: Q01DX001 (ip), vehicle: saline with Tween-80.
[9] abbreviates: dose: 400.0 mg/kg/injection, schedule: Q01DX001 (ip), vehicle: saline with Tween-80.
The mark [10] stands for this setting: dose: 25.0 mg/kg/injection, schedule: Q04DX002 (ip), vehicle: Klucel (hydroxypropylcellulose) (HPC).
[11] abbreviates: dose: 50.0 mg/kg/injection, schedule: Q04DX002 (ip), vehicle: Klucel (hydroxypropylcellulose) (HPC).

Consider `C[N+]1=C2CCCCCC2=C(N)CC1`, for which the T/C is 104 % of control under setting [1], 100 % of control under setting [2] and 100 % of control under setting [3].
Turning to `O=NN(CCCl)C(=O)Nc1cccc(Cl)c1`, the T/C is 112 % of control (dose: 2.28 mg/kg/injection, schedule: Q01DX001 (ip), vehicle: carboxymethylcellulose (CMC)); 116 % of control (dose: 4.56 mg/kg/injection, schedule: Q01DX001 (ip), vehicle: carboxymethylcellulose (CMC)); 160 % of control under setting [4]; 104 % of control (dose: 125.0 mg/kg/injection, schedule: Q01DX001 (ip), vehicle: carboxymethylcellulose (CMC)); 153 % of control (dose: 150.0 mg/kg/injection, schedule: Q01DX001 (ip), vehicle: carboxymethylcellulose (CMC)); 156 % of control (dose: 175.0 mg/kg/injection, schedule: Q01DX001 (ip), vehicle: carboxymethylcellulose (CMC)).
As for `O=C1CCCc2c1ccc1ccccc21`, the T/C was 97 % of control (dose: 100.0 mg/kg/injection, schedule: Q01DX009 (ip), vehicle: Klucel (hydroxypropylcellulose) (HPC)); 101 % of control under setting [5]; 103 % of control under setting [6]; 100 % of control (dose: 400.0 mg/kg/injection, schedule: Q01DX009 (ip), vehicle: Klucel (hydroxypropylcellulose) (HPC)); 100 % of control (dose: 400.0 mg/kg/injection, schedule: Q04DX003 (ip), vehicle: Klucel (hydroxypropylcellulose) (HPC)).
As for `CN(C)c1ccc(/C=N/O)cc1`, the T/C reads like this: (dose: 100.0 mg/kg/injection, schedule: Q04DX002 (ip), vehicle: saline) 103 % of control; (dose: 200.0 mg/kg/injection, schedule: Q04DX002 (ip), vehicle: saline) 95 % of control; (dose: 400.0 mg/kg/injection, schedule: Q04DX002 (ip), vehicle: saline) 95 % of control.
As to `CCC(C)OC(=O)Nc1cccc(OC(=O)N(CC)CC)c1` (stereo not given), the T/C reads like this: under setting [7], 103 % of control; under setting [8], 90 % of control; under setting [9], 100 % of control.
Turning to `C=C1N2CCC(CC2)C1(O)c1ccccc1` (stereo not given), the T/C reads like this: (dose: 3.13 mg/kg/injection, schedule: Q04DX003 (ip), vehicle: saline) 92 % of control; (dose: 6.25 mg/kg/injection, schedule: Q04DX003 (ip), vehicle: saline) 103 % of control; (dose: 12.5 mg/kg/injection, schedule: Q04DX003 (ip), vehicle: Klucel (hydroxypropylcellulose) (HPC)) 103 % of control; (dose: 12.5 mg/kg/injection, schedule: Q04DX003 (ip), vehicle: saline) 97 % of control.
Turning to `CN(CCCl)CC1C(c2ccccc2)C1c1ccccc1` (stereo not given), the T/C by setting is: under setting [10], 103 % of control; under setting [11], 111 % of control; (dose: 100.0 mg/kg/injection, schedule: Q04DX002 (ip), vehicle: Klucel (hydroxypropylcellulose) (HPC)) 107 % of control and 111 % of control.
In the case of `COc1cc2ccc(C(C)N)cc2cc1OC` (stereo not given), the T/C was 100 % of control (dose: 50.0 mg/kg/injection, schedule: Q01DX009 (ip), vehicle: saline); 105 % of control (dose: 100.0 mg/kg/injection, schedule: Q01DX009 (ip), vehicle: saline); 110 % of control (dose: 100.0 mg/kg/injection, schedule: Q04DX003 (ip), vehicle: saline); 103 % of control (dose: 200.0 mg/kg/injection, schedule: Q01DX009 (ip), vehicle: saline); 117 % of control (dose: 200.0 mg/kg/injection, schedule: Q04DX003 (ip), vehicle: saline).
In the case of `CC(C)C(C(=O)c1ccccc1)C(Cl)c1ccccc1` (stereo not given), the T/C (dose: 100.0 mg/kg/injection, schedule: Q04DX003 (ip), vehicle: other) was 94 % of control; the T/C (dose: 200.0 mg/kg/injection, schedule: Q04DX003 (ip), vehicle: other) is 102 % of control; the T/C (dose: 400.0 mg/kg/injection, schedule: Q04DX003 (ip), vehicle: other) is 93 % of control.
`C[N+](C)(C)c1ncnc2c1ncn2C1CCCO1` (stereo not given): the T/C is, setting by setting: (dose: 50.0 mg/kg/injection, schedule: Q01DX Z (ip), vehicle: methylcellulose (MC)) 92 % of control; (dose: 100.0 mg/kg/injection, schedule: Q01DX Z (ip), vehicle: methylcellulose (MC)) 94 % of control.
Turning to `O=C(O)C12CCC(CC1)C1CCC2CC1`, the T/C (dose: 12.5 mg/kg/injection, schedule: Q04DX002 (ip), vehicle: Klucel (hydroxypropylcellulose) (HPC)) was 101 % of control; the T/C under setting [10] is 105 % of control; the T/C under setting [11] is 116 % of control.
For the compound `O=C(C=C(C(F)(F)F)C(F)(F)F)c1ccc(F)cc1`, the T/C (dose: 6.25 mg/kg/injection, schedule: Q01DX009 (ip), vehicle: other) is 91 % of control; the T/C (dose: 6.25 mg/kg/injection, schedule: Q04DX003 (ip), vehicle: other) was 95 % of control; the T/C (dose: 12.5 mg/kg/injection, schedule: Q01DX009 (ip), vehicle: other) is 92 % of control; the T/C (dose: 12.5 mg/kg/injection, schedule: Q04DX003 (ip), vehicle: other) was 109 % of control; the T/C (dose: 25.0 mg/kg/injection, schedule: Q01DX009 (ip), vehicle: other) was 103 % of control; the T/C (dose: 25.0 mg/kg/injection, schedule: Q04DX003 (ip), vehicle: other) is 97 % of control and 103 % of control.
For the compound `NC(=O)N/N=C(/Cl)C(=O)NNC(N)=O`, the T/C runs as follows: (dose: 100.0 mg/kg/injection, schedule: Q04DX002 (ip), vehicle: saline with Tween-80) 89 % of control; (dose: 200.0 mg/kg/injection, schedule: Q04DX002 (ip), vehicle: saline with Tween-80) 89 % of control; (dose: 400.0 mg/kg/injection, schedule: Q04DX002 (ip), vehicle: saline with Tween-80) 96 % of control.
Regarding `O=C(Nc1cccc(C(F)(F)F)c1)Nc1ccccn1`, the T/C by setting is: (dose: 100.0 mg/kg/injection, schedule: Q01DX009 (ip), vehicle: gum acacia) 99 % of control; (dose: 200.0 mg/kg/injection, schedule: Q01DX009 (ip), vehicle: gum acacia) 92 % of control; (dose: 400.0 mg/kg/injection, schedule: Q01DX009 (ip), vehicle: gum acacia) 89 % of control.
As for `CCOc1ccc(Cl)cc1C1N(Cc2ccc(OC)cc2)CCCN1Cc1ccc(OC)cc1`, the T/C is 98 % of control under setting [4]; 98 % of control (dose: 200.0 mg/kg/injection, schedule: Q01DX001 (ip), vehicle: carboxymethylcellulose (CMC)); 102 % of control (dose: 400.0 mg/kg/injection, schedule: Q01DX001 (ip), vehicle: carboxymethylcellulose (CMC)).
For the compound `C=C1C(=O)OC2CC3(C)C(O)CCC(=C)C3C(OC(C)=O)C12` (stereo not given) (tested in a mixture with another compound), the T/C (dose: 100.0 mg/kg/injection, schedule: Q01DX001 (ip), vehicle: saline) is 104 % of control.
As for `c1ccc(-c2ccc(-c3cnc(-c4ccccc4)[nH]3)cc2)cc1`, the T/C was 95 % of control under setting [7], 92 % of control under setting [8] and 92 % of control under setting [9].
As for `OC(CCl)CNc1ccc(-c2ccccc2)cc1` (stereo not given), the T/C was 94 % of control (dose: 100.0 mg/kg/injection, schedule: Q01DX001 (ip), vehicle: other); 100 % of control under setting [5]; 92 % of control (dose: 200.0 mg/kg/injection, schedule: Q01DX001 (ip), vehicle: other); 86 % of control under setting [6]; 97 % of control (dose: 400.0 mg/kg/injection, schedule: Q01DX001 (ip), vehicle: other).
Regarding `NC(CSC(c1ccccc1)(c1ccccc1)c1ccc(O)cc1)C(=O)O` (stereo not given), the T/C under setting [1] is 111 % of control; the T/C under setting [2] is 105 % of control; the T/C under setting [3] was 116 % of control; the T/C (dose: 75.0 mg/kg/injection, schedule: Q01DX001 (ip), vehicle: other) is 104 % of control; the T/C (dose: 150.0 mg/kg/injection, schedule: Q01DX001 (ip), vehicle: other) is 109 % of control.
For `COc1ccc(C2=CC=C(c3ccccc3)C2)cc1N`, the T/C is 90 % of control (dose: 100.0 mg/kg/injection, schedule: Q01DX001 (ip), vehicle: Klucel (hydroxypropylcellulose) (HPC)); 95 % of control (dose: 200.0 mg/kg/injection, schedule: Q01DX001 (ip), vehicle: Klucel (hydroxypropylcellulose) (HPC)); 90 % of control (dose: 400.0 mg/kg/injection, schedule: Q01DX001 (ip), vehicle: Klucel (hydroxypropylcellulose) (HPC)).
As to `c1ccc(C2=C(c3ccccc3)CSSC2)cc1`, the T/C is, setting by setting: (dose: 50.0 mg/kg/injection, schedule: Q04DX003 (ip), vehicle: Klucel (hydroxypropylcellulose) (HPC)) 100 % of control; under setting [5], 100 % of control; under setting [6], 100 % of control.
